Laboratory results reported in ChEMBL document CHEMBL5212743, “Selectivity Literature for EUbOPEN Chemogenomics Library wave 3” (2023).

Assays:
Aurora kinase C = Aurora kinase C (Homo sapiens, UniProt Q9UQB9); assay: Selectivity interaction (NanoBRET assay (HEK293T cells)) EUB0000723a AURKC
[1] = system: Tyrosine-protein kinase ABL1 (Homo sapiens), P00519 [T315I]; assay: Selectivity interaction (KinomeScan (DiscoverX)) EUB0000723a ABL1; settings: at 1 µM
[2] = target: T1, Aurora kinase C (Homo sapiens) (UniProt Q9UQB9); assay: Selectivity interaction (KinomeScan (DiscoverX)) EUB0000723a AURKC; settings: at 1 µM
T1 sequence (whole entry): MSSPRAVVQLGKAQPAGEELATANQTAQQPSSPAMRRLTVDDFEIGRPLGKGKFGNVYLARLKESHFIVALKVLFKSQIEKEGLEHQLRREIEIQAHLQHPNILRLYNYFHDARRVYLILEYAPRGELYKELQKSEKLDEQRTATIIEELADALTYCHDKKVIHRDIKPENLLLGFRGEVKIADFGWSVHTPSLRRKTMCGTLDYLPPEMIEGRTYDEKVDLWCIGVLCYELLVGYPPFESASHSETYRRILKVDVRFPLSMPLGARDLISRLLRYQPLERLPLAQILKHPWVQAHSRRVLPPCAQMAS

[3] = target: Tyrosine-protein kinase ABL1 (Homo sapiens, UniProt P00519); assay: Selectivity interaction (NanoBRET assay (HEK293T cells)) EUB0000723a ABL1
[4] = target: Cyclin-dependent kinase 9 (Homo sapiens) (UniProt P50750); assay: Selectivity interaction (Kinase Profiler (Millipore)) EUB0000677a CDK9; settings: at 1 µM
[5] = target: Casein kinase II subunit alpha (Homo sapiens, UniProt P68400); assay: Selectivity interaction (Kinase panel (radiometric kinase assay)) EUB0000677a CSNK2A1
[6] = target: T2, Serine/threonine-protein kinase PLK1 (Homo sapiens, UniProt P53350); settings: at 1 µM
[7] = system: T3, Receptor-type tyrosine-protein kinase FLT3 (Homo sapiens), P36888 [D835Y]; settings: at 1 µM
T3 sequence (whole entry): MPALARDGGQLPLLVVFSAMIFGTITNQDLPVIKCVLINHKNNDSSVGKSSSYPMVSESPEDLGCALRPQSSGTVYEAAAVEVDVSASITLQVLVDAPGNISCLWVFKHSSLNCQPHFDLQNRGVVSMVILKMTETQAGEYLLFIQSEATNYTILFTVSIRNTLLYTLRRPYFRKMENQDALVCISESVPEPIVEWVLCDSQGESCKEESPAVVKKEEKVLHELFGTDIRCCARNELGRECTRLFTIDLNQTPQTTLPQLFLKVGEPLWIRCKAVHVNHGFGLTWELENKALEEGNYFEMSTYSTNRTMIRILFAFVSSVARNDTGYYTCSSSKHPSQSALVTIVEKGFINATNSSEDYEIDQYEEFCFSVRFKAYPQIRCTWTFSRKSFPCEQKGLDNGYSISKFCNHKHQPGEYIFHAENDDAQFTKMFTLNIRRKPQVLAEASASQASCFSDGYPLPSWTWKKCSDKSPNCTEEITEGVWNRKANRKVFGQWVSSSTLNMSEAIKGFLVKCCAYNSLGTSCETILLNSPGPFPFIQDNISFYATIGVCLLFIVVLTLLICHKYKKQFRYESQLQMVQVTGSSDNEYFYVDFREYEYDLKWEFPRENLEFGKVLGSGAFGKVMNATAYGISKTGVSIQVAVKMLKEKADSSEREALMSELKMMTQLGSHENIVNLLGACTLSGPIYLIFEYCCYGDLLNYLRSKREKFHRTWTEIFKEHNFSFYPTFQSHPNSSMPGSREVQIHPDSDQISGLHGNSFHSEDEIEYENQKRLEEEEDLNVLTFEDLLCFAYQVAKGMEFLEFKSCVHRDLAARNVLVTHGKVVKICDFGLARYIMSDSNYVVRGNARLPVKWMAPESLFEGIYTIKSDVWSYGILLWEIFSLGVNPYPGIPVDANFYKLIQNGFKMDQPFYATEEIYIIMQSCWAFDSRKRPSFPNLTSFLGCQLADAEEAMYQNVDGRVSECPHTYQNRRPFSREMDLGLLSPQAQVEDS

[8] = target: Mitogen-activated protein kinase 8 (Homo sapiens, UniProt P45983); assay: Selectivity interaction (KinomeScan (DiscoverX)) EUB0000316b MAPK8; settings: at 1 µM
[9] = target: T4, Receptor-interacting serine/threonine-protein kinase 4 (Homo sapiens) (UniProt P57078); assay: Selectivity interaction (KinomeScan (DiscoverX)) EUB0000316b RIPK4; settings: at 1 µM
T4 sequence (whole entry): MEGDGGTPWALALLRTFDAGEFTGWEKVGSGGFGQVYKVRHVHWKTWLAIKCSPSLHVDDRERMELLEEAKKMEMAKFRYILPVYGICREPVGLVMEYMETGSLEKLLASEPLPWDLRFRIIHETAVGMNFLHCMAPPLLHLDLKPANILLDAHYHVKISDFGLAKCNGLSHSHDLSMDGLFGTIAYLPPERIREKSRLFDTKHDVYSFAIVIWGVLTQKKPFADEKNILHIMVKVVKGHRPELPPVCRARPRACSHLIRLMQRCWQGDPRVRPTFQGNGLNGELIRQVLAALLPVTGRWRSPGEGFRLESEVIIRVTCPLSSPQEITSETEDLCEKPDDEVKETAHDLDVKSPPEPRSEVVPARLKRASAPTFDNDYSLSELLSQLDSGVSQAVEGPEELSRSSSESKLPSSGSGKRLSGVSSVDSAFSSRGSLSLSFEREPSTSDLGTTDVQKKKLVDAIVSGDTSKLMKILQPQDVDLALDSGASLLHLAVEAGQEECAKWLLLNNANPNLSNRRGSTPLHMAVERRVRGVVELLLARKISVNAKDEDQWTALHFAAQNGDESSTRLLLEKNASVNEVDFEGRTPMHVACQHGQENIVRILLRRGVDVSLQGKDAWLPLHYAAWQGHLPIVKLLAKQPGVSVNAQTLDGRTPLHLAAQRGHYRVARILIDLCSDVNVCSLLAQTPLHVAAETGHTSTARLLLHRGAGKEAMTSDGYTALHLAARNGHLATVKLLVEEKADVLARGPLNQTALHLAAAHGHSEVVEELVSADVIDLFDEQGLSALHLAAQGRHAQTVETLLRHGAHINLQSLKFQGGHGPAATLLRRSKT

[10] = target: T5, Gamma-aminobutyric acid receptor subunit alpha-1 (Homo sapiens, UniProt P14867); assay: Selectivity interaction (GPCR panel (PDSP screen)) EUB0000316b GABRA1
T5 sequence (P14867 whole entry): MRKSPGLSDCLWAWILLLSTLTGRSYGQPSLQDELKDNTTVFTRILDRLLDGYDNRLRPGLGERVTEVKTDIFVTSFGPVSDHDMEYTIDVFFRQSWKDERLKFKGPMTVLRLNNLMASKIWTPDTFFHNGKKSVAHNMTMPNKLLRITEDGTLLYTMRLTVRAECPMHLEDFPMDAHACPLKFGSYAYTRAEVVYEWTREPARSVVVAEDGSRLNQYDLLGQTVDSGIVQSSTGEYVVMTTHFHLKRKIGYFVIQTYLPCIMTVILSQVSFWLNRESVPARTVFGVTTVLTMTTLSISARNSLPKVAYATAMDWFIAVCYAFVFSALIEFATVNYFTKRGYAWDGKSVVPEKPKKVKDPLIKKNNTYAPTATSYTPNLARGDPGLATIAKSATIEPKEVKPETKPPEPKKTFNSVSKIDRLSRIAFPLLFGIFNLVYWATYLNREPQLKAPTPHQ

[11] = target: Serine/threonine-protein kinase WNK2 (Homo sapiens) (UniProt Q9Y3S1); assay: Selectivity interaction (KinomeScan (DiscoverX)) EUB0000316b WNK2; settings: at 1 µM
[12] = target: Mitogen-activated protein kinase kinase kinase 14 (Homo sapiens) (UniProt Q99558); assay: Selectivity interaction (KinomeScan (DiscoverX)) EUB0000316b MAP3K14; settings: at 1 µM
[13] = target: Cyclin-dependent kinase 4 (Homo sapiens) (UniProt P11802); assay: Selectivity interaction (KinomeScan (DiscoverX)) EUB0000316b CDK4; settings: at 1 µM
[14] = target: T6, Alpha-2C adrenergic receptor (Homo sapiens, UniProt P18825); assay: Selectivity interaction (GPCR panel (PDSP screen)) EUB0000316b ADRA2C
T6 sequence (P18825 whole entry): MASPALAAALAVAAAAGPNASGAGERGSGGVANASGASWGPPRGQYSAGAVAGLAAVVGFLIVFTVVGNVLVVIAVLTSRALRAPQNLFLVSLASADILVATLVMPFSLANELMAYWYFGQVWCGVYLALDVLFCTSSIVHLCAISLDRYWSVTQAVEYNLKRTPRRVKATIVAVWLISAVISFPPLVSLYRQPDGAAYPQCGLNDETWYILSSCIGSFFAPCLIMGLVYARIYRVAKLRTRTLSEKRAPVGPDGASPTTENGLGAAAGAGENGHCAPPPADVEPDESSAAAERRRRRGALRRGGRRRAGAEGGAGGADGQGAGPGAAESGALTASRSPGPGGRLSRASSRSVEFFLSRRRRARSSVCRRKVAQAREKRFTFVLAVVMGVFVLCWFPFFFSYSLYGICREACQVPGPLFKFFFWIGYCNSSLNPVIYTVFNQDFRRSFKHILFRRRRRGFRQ

Histamine H3 receptor = Histamine H3 receptor (Homo sapiens, UniProt Q9Y5N1); assay: Selectivity interaction (GPCR panel (PDSP screen)) EUB0000714a HRH3
[15] = target: T7, Dual specificity mitogen-activated protein kinase kinase 5 (Homo sapiens) (UniProt Q13163); assay: Selectivity interaction (KinomeScan (DiscoverX)) EUB0000714a MAP2K5; settings: at 100 nM
T7 sequence (whole entry): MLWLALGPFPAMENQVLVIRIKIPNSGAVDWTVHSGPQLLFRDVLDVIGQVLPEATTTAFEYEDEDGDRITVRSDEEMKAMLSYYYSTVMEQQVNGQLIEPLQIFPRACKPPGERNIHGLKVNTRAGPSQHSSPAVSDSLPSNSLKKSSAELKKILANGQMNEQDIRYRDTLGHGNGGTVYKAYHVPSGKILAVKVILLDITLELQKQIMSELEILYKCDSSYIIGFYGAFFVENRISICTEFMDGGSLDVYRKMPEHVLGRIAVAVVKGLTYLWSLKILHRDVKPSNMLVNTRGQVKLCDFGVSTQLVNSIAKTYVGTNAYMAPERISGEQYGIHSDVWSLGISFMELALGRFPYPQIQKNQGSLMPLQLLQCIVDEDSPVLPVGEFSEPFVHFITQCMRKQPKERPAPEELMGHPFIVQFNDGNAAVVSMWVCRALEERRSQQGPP

[16] = target: High affinity nerve growth factor receptor (Homo sapiens, UniProt P04629); assay: Selectivity interaction (KinomeScan (DiscoverX)) EUB0000714a NTRK1; settings: at 100 nM
[17] = target: Dual specificity mitogen-activated protein kinase kinase 3 (Homo sapiens) (UniProt P46734); assay: Selectivity interaction (KinomeScan (DiscoverX)) EUB0000714a MAP2K3; settings: at 100 nM
[18] = target: Phosphatidylinositol 4,5-bisphosphate 3-kinase catalytic subunit alpha isoform (Homo sapiens, UniProt P42336); assay: Selectivity interaction (KinomeScan (DiscoverX)) EUB0000714a PIK3CA; settings: at 100 nM
[19] = target: Mitogen-activated protein kinase 10 (Homo sapiens, UniProt P53779); assay: Selectivity interaction (KinomeScan (DiscoverX)) EUB0000704a MAPK10; settings: at 1 µM
[20] = target: Protein kinase C alpha type (Homo sapiens) (UniProt P17252); assay: Selectivity interaction (KinomeScan (DiscoverX)) EUB0000704a PRKCA; settings: at 1 µM
[21] = target: T5, Gamma-aminobutyric acid receptor subunit alpha-1; assay: Selectivity interaction (GPCR panel (PDSP screen)) EUB0000704a GABRA1
[22] = target: Serine/threonine-protein kinase WNK3 (Homo sapiens) (UniProt Q9BYP7); assay: Selectivity interaction (KinomeScan (DiscoverX)) EUB0000704a WNK3; settings: at 1 µM
[23] = target: Sodium-dependent dopamine transporter (Homo sapiens, UniProt Q01959); assay: Selectivity interaction (GPCR panel (PDSP screen)) EUB0000704a SLC6A3
[24] = target: Serine/threonine-protein kinase WNK4 (Homo sapiens) (UniProt Q96J92); assay: Selectivity interaction (KinomeScan (DiscoverX)) EUB0000704a WNK4; settings: at 1 µM
[25] = target: T2, Serine/threonine-protein kinase PLK1; assay: Selectivity interaction (KinomeScan (DiscoverX)) EUB0000704a PLK1; settings: at 1 µM
[26] = target: 5-hydroxytryptamine receptor 7 (Homo sapiens, UniProt P34969); assay: Selectivity interaction (GPCR panel (PDSP screen)) EUB0000252b HTR7

T2 sequence (P53350 whole entry): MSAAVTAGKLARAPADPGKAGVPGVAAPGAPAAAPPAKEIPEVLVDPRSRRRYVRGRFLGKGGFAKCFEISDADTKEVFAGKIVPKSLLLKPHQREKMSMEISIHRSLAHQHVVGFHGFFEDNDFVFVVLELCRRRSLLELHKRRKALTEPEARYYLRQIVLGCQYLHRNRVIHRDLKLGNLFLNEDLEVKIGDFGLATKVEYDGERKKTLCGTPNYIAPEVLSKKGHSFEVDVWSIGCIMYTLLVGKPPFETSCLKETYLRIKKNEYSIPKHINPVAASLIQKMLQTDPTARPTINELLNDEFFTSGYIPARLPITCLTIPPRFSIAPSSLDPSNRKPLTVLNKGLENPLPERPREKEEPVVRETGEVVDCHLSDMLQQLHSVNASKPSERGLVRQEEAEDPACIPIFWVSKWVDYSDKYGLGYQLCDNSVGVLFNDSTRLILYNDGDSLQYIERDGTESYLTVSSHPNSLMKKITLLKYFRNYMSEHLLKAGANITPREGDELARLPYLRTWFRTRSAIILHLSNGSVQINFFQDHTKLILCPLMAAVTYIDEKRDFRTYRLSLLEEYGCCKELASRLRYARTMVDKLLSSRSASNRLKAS
Dual specificity mitogen-activated protein kinase kinase 3 (Homo sapiens), sequence (P46734 whole entry, canonical isoform): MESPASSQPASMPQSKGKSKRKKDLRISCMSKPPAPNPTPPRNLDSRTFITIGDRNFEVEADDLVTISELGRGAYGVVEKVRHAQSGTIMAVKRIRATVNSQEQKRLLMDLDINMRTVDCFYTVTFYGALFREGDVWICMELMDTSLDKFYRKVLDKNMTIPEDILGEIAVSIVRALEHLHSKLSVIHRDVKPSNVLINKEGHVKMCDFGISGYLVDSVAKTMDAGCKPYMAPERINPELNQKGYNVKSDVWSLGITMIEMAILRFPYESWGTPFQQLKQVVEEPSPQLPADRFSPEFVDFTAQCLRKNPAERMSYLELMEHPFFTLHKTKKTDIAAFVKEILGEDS
Histamine H3 receptor, sequence (Q9Y5N1 whole entry): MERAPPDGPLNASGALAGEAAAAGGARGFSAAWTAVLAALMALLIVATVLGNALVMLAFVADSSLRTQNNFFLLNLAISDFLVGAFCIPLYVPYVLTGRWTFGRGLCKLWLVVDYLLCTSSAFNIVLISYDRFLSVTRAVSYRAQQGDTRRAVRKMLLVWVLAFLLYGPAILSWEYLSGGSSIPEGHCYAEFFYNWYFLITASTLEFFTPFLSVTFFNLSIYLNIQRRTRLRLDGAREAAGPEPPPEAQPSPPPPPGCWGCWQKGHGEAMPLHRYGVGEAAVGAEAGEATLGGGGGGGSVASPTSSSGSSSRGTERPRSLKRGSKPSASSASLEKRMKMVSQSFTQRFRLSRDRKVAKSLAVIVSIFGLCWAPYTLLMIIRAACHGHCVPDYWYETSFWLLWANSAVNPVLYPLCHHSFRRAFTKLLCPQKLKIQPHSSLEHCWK
Mitogen-activated protein kinase 8, sequence (P45983 whole entry): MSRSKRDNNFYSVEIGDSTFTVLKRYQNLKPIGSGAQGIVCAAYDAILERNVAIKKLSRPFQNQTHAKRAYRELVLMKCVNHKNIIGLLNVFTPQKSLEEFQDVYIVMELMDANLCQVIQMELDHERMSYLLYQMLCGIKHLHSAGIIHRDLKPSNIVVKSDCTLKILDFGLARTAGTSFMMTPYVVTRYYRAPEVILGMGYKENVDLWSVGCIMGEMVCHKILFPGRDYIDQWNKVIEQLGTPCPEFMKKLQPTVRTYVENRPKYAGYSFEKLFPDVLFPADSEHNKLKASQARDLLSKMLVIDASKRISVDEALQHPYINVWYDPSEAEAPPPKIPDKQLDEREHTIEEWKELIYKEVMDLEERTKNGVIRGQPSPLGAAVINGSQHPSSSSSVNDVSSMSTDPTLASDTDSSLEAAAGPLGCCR
Serine/threonine-protein kinase WNK3 (Homo sapiens), sequence (Q9BYP7 whole entry): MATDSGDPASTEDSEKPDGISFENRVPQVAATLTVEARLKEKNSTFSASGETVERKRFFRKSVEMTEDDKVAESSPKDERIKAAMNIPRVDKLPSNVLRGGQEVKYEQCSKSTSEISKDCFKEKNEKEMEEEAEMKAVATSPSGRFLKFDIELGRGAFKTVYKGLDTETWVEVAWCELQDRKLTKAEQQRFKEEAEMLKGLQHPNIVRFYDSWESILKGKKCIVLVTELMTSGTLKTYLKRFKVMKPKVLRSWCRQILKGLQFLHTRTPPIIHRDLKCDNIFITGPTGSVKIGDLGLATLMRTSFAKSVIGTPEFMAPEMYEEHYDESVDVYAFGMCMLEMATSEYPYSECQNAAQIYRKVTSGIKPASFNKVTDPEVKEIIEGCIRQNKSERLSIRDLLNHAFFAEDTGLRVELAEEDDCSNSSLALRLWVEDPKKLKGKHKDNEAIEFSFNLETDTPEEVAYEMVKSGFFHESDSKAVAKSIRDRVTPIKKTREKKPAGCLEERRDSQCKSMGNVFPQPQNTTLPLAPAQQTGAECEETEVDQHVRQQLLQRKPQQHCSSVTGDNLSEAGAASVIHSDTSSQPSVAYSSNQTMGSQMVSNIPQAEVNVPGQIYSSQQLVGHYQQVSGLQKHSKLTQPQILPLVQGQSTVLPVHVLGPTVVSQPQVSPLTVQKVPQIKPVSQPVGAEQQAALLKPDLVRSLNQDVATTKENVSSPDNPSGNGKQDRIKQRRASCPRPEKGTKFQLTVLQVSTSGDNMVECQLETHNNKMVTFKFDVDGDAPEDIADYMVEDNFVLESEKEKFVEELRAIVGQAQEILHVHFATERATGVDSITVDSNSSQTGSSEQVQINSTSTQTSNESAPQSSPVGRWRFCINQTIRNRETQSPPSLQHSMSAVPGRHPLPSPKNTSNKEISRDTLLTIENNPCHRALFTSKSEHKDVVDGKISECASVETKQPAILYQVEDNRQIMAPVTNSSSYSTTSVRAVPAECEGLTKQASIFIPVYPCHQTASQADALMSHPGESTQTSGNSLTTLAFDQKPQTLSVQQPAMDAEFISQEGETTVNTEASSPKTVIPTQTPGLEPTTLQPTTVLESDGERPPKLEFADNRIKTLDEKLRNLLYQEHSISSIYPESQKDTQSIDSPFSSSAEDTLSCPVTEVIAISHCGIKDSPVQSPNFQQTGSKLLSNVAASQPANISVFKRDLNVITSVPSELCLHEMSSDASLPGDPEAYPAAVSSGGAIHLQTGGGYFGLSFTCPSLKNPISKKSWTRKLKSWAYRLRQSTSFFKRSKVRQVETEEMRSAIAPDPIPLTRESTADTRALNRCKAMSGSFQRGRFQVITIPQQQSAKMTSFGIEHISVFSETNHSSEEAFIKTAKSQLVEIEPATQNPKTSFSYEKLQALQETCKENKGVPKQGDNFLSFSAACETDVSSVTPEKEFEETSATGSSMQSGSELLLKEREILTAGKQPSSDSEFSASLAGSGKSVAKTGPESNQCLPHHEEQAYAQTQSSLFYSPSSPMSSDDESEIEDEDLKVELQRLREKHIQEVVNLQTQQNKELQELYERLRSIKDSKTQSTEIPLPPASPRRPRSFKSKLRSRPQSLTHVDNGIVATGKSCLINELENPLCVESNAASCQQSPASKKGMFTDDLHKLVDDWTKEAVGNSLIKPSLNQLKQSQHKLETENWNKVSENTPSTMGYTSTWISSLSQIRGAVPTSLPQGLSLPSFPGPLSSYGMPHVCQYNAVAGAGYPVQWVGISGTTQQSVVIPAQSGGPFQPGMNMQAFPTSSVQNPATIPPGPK
Cyclin-dependent kinase 9 (Homo sapiens), sequence (P50750 whole entry): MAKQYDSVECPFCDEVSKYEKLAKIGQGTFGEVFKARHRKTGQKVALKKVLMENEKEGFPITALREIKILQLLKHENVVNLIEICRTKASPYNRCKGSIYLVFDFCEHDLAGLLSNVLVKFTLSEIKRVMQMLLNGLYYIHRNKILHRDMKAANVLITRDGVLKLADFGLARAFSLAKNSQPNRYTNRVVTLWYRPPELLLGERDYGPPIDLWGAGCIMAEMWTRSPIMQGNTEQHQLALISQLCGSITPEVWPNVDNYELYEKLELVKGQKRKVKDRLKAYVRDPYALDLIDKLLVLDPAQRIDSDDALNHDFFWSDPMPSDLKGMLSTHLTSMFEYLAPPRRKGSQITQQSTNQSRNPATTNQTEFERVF
Cyclin-dependent kinase 4 (Homo sapiens), sequence (P11802 whole entry): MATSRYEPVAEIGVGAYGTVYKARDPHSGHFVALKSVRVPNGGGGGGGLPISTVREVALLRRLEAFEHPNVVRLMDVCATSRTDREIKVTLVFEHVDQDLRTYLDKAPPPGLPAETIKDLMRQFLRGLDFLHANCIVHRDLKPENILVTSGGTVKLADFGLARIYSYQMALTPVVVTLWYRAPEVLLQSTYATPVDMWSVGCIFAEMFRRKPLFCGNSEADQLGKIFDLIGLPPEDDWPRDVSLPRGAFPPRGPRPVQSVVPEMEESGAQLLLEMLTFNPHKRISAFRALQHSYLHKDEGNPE

SMILES: O=C(NCCCN1CCOC1=O)c1cnc(NCc2cc(Br)ccc2Br)nc1NC1CCCC1
- IC50 (Aurora kinase C): > 10 µM
- % of control [1]: 100%
- % of control [2]: 100%
- IC50 [3]: > 10 µM

SMILES: CN1CCN(c2ccc(OC(F)(F)F)c(Nc3ncc4c(n3)-c3c(c(C(N)=O)nn3CCO)CC4)c2)CC1 [ONVANSERTIB]
- % of control [4]: 10%
- IC50 [5]: 0.826 µM
- % of control [6]: 3%
- % of control [7]: 9%

SMILES: CC(=O)c1c(NS(C)(=O)=O)c2cc(-c3ccc(Cl)cc3)c(-c3ccc(Cl)cc3Cl)nc2n(C)c1=O [MRL-CB1-NC]
- % of control [8]: 63%
- % of control [9]: 61%
- Ki [10]: 1.67 µM
- % of control [11]: 62%
- % of control [12]: 63%
- % of control [13]: 63%
- Ki [14]: > 10 µM

SMILES: Cc1cc(Nc2nccc(C)n2)cc(-c2cnc([C@@]3(O)CC[C@H](C(=O)O)C(C)(C)C3)s2)c1 [MRL-SYKi]
- Ki (Histamine H3 receptor): > 10 µM
- % of control [15]: 25.2%
- % of control [16]: 30.2%
- % of control [17]: 29.5%
- % of control [18]: 14.7%

SMILES: Cc1ccc(-c2cnc([C@@]3(O)CC[C@H](C(=O)O)C(C)(C)C3)s2)cc1Nc1cccc(C(F)(F)F)n1 [MRL-SYKi-NC]
- % of control [19]: 38%
- % of control [20]: 33%
- Ki [21]: 0.774 µM
- % of control [22]: 0%
- Ki [23]: > 10 µM
- % of control [24]: 32%
- % of control [25]: 20%

SMILES: N#CC1(c2ccccn2)CCN(Cc2cc(C(=O)O)c(=O)n3ccccc23)CC1 [MSD-M1PAM]
- Ki [26]: > 10 µM
